Measured values reported in patent US20240390468A1, “SURVIVIN AND MAGE-A9 DUAL-TARGETED IMMUNOTHERAPY” (IMMUNOVACCINE TECHNOLOGIES INC., priority 2022, published 2024).
“Also recorded” adds a separate entry of the source.

Experiments:
[1] = test system: spleen cells of HLA-A2/DR1 transgenic mice immunized with MAGE-A9 full length recombinant protein; assay: IFN-γ ELISPOT, MAGE-A9 immunogenic HLA-A2 peptides; assay type: cell-based; settings: for IFN-γ response (ELISPOT): HLA-A2/DR1 mice, three experiments
Procedure: FIGS. 11A and 11B depict IFN-γ ELISPOT results of 1st experiment for the MAGE-A9 immunogenic HLA-A2 peptides. Induction of IFN-γ response induced against HLA-A2 peptides of MAGE-A9 as detected by IFN-γ ELISPOT assay. A group of 10 mice was immunized with MAGE-A9 full length recombinant protein admixed with poly(I:C). Mice were sacrificed 34 days after 1st immunization and spleen cells were tested in IFN-γ ELISPOT after stimulation with dendritic cells loaded with the individual candidate or control peptides (FIG. 11A) or after direct stimulation with the individual candidate or control peptides (FIG. 11B). DCE: Dendritic cell empty; NS: Non stimulated; INF, gp100 and EBV: irrelevant HLA-A2 control peptides. Student T-test *p<0.05; ** p<0.005; *** p<0.0005; **** p<0.00005.
(§1) IFN-γ ELISPOTs was performed to measure antigen-specific T-cell activation upon stimulation with peptides containing the putative epitopes. […]
(§2) Groups of ten 6-12 weeks-old HLA-A1, HLA-A2/DR1, HLA-A24, HLA-All (as a surrogate for HLA-A3 allele) and HLA-B7 male/female mice were immunized three times s.c. and i.p., 14 days apart, with 30 μg of MAGE-A9 his-tag full-length recombinant protein admixed with 50 μg (s.c.) or 200 μg (i.p.) of Poly(I:C) in a final volume of 100 μl. On day 34, mice were sacrificed. Splenocytes were isolated from spleens and treated with ACK lysis buffer to lyse contaminating erythrocytes. Splenocytes were stimulated with the candidate peptides alone or with dendritic cells loaded with the candidate peptides. The immune response was measured using IFN-γ ELISPOT assays (BD). Then spots were counted using an ELISPOT counter (CTL Analyzer) and enumerated as number of spot-forming units (SFU) per well. Each experiment was repeated two or three times (except for the experiment with HLA-A11 (as a surrogate for HLA-A3 allele) mice which was done only once).
Student's t-tests were performed to compare two groups (non-stimulated versus stimulated with test peptide). To indicate significance, p-values are represented in the figures by * p<0.05, ** p<0.01, *** p<0.001, and **** p=0.0001. All data are presented as means with standard error of the mean (SEM).
The experiment was repeated three times for a total number of 30 mice (FIGS. 11, 12, and 13). The immune response for peptides 111, 24, 223 and 270 via Chromium 51 (^51Cr) release assays (CTL assays) is also presented in Example 6. […] These tests offer a very high sensitivity, which explains why the INF-Y response for these peptides appears to be weaker, although the peptides are responsive in other assays (see Examples 6).

[2] = test system: spleen cells of HLA-A1 transgenic mice immunized with MAGE-A9 full length recombinant protein; assay: IFN-γ ELISPOT, MAGE-A9 immunogenic HLA-A1 peptides; assay type: cell-based
Procedure: FIGS. 14A and 14B depict IFN-γ ELISPOT results of 1st experiment for the MAGE-A9 immunogenic HLA-A1 peptides. IFN-γ response induced by HLA-A1 candidate peptides of MAGE-A9 as detected by IFN-γ ELISPOT assay. Two groups of 3 and 5 mice were immunized respectively with poly(I:C) alone (as control; bar on the left) and with MAGE-A9 full-length recombinant protein admixed with poly(I:C) (bar on the right). Mice were sacrificed 34 days after 1st immunization and spleen cells were tested in IFN-γ ELISPOT after stimulation with dendritic cells loaded with the individual candidate or control peptides (FIG. 14A) or after direct stimulation with the individual candidate or control peptides (FIG. 14B). DCE: Dendritic cell empty; NS: Non stimulated; Ctrl HLA-A1; irrelevant control HLA-A1 peptide. Student T-test *p<0.05; ** p<0.005; *** p<0.0005; **** p<0.00005. […]
(§3) Groups of ten 6-12 weeks-old HLA-A1, HLA-A2/DR1, HLA-A24, HLA-All (as a surrogate for HLA-A3 allele) and HLA-B7 male/female mice were immunized three times s.c. and i.p., 14 days apart, with 30 μg of MAGE-A9 his-tag full-length recombinant protein admixed with 50 μg (s.c.) or 200 μg (i.p.) of Poly(I:C) in a final volume of 100 μl. […] The immune response was measured using IFN-γ ELISPOT assays (BD). Then spots were counted using an ELISPOT counter (CTL Analyzer) and enumerated as number of spot-forming units (SFU) per well. […]

[3] = test system: spleen cells of HLA-A11 transgenic mice immunized with MAGE-A9 full length recombinant protein; assay: IFN-γ ELISPOT, MAGE-A9 immunogenic HLA-A3/A11 peptides; assay type: cell-based
Excerpt: FIGS. 23A and 23B depict IFN-γ ELISPOT results of the experiment for the MAGE-A9 immunogenic HLA-A3/A11 peptides. IFN-γ response induced by HLA-A3 candidate peptides of MAGE-A9 as detected by IFN-γ ELISPOT assay. Two group of 3 and 10 HLA-A11 transgenic mice were immunized respectively with DPX-Empty alone (as control; bar on the left) and with MAGE-A9 full-length recombinant protein admixed with poly(I:C) (bar on the right). Mice were sacrificed 36 days after 1st immunization and spleen cells were tested in IFN-γ ELISPOT after stimulation with dendritic cells loaded with the individual candidate or control peptides (FIG. 23A) or after direct stimulation with the individual candidate or control peptides (FIG. 23B). DCE: Dendritic cell empty; NS: Non stimulated; A3-Ctrl; irrelevant control HLA-A3 peptide.
as §1, §2
(§4) Student's t-tests were performed to compare two groups (non-stimulated versus stimulated with test peptide). […]

[4] = target: MHC class 1 allele A*02:01 (Homo sapiens, UniProt P04439, D140Y/D185E/D98H/E176V/E277Q/G131W/G231S/I119V/I121R/I166T/I218V/L300P/L318F/N151K/N90K/P208A/P217A/Q86G/Q94H/R138H/R169H/T345S); assay: REVEAL binding of HLA-A2 binding peptides; settings: for binding to MHC class 1 allele A*02:01 (in words): Higher REVEAL score
[5] = test system: peptide-loaded RMA-S HHD cells; assay: Chromium 51 release assay (CTL assay); assay type: cell-based, mice; settings: for CTL response (51Cr-release): effector:target 75:1, 50:1, 25:1, mice immunized with recombinant MAGE-A9 and poly(I:C)
[6] = target: T1, HLA-A2 (Homo sapiens, UniProt P04439, D140Y/D185E/D98H/E176V/E277Q/G131W/G231S/I119V/I121R/I166T/I218V/L300P/N151K/N90K/P208A/P217A/Q86G/Q94H/R138H/R169H); assay: Flex-T in vitro HLA binding assay (HLA class I ELISA); settings: Flex-T monomer peptide exchange, β2-microglobulin ELISA
T1 construct: purchased Biolegend, USA
Procedure: Internal in vitro assay that assesses the binding of each of the peptides to HLA-A2 as a part of the potency assay development was performed using the Flex-T in vitro binding assay.
Flex-T technology (Biolegend, USA) offers the opportunity to quantitatively measure the binding affinity of peptides to their respective MHC Class I receptors (In this case HLA-A2). Flex-T was made of MHC monomers loaded with a peptide that can be degraded using a UV light source. This allowed for a peptide exchange when the UV irradiation was done in the presence of the peptide of interest which is not UV-labile.
The binding of the peptide of interest to the Flex-T monomer was quantified using an HLA class I ELISA method based on the detection of β2-microglobulin subunit of HLA class I complexes, after capturing the complex through the conjugated biotin. To this end, biotinylated HLA class I monomer-peptide complex was first captured in streptavidin coated microtiter wells. Subsequently, lRP-conjugated anti-human 02-microglobulin was added to detect intact HLA class I complexes. Only intact HLA class I complexes were recognized.
The relative potency was then calculated compared to a reference lot using parallel line analysis as per USP <1034>.

[7] = test system: spleen cells of HLA-B7 transgenic mice immunized with MAGE-A9 full length recombinant protein; assay: IFN-γ ELISPOT, MAGE-A9 immunogenic HLA-B7 peptides; assay type: cell-based; settings: individual responses per mouse
Procedure: FIGS. 19A and 19B depict IFN-γ ELISPOT results of 1st experiment for the MAGE-A9 immunogenic HLA-B7 peptides. IFN-γ response induced by HLA-B7 candidate peptides of MAGE-A9 as detected by IFN-γ ELISPOT assay. Two group of 3 and 5 mice were immunized respectively with poly(I:C) alone (as control; bar on the left) and with MAGE-A9 full-length recombinant protein admixed with poly(I:C) (bar on the right). Mice were sacrificed 34 days after 1st immunization and spleen cells were tested in IFN-γ ELISPOT after stimulation with dendritic cells loaded with the individual candidate or control peptides (FIG. 19A) or after direct stimulation with the individual candidate or control peptides (FIG. 19B). DCE: Dendritic cell empty; NS: Non stimulated; B7-Ctrl; irrelevant control HLA-B7 peptide. Student T-test *p<0.05; ** p<0.005; *** p<0.0005; **** p<0.00005. […]
as §3

[8] = test system: spleen cells of HLA-A24 transgenic mice immunized with MAGE-A9 full length recombinant protein; assay: IFN-γ ELISPOT, MAGE-A9 immunogenic HLA-A24 peptides; assay type: cell-based; settings: three experiments
Procedure: FIGS. 16A and 16B depict IFN-γ ELISPOT results of 1st experiment for the MAGE-A9 immunogenic HLA-A24 peptides. IFN-γ response induced against HLA-A24 candidate peptides of MAGE-A9 as detected by IFN-γ ELISPOT assay. Two group of 3 and 5 mice were immunized respectively with poly(I:C) alone (as control; bar on the left) and with MAGE-A9 full-length recombinant protein admixed with poly(I:C) (bar on the right). Mice were sacrificed 34 days after 1st immunization and spleen cells were tested in IFN-γ ELISPOT after stimulation with dendritic cells loaded with the individual candidate or control peptides (FIG. 16A) or after direct stimulation with the individual candidate or control peptides (FIG. 16B). DCE: Dendritic cell empty; NS: Non stimulated; A24-Ctrl; irrelevant control HLA-A24 peptide. Student T-test *p<0.05; ** p<0.005; *** p<0.0005; **** p<0.00005.
as §1, §2, §4

**Q.** With “ALLIIVLGV [compound 199, MAGE-A9 peptide antigen]” as the sequence, how does the “IFN-γ response (ELISPOT)” value [1] read?
**A.** highest

**Q.** Which “IFN-γ response (ELISPOT)” value ([2]; HLA-A1 mice, two experiments) does the source give for EVDPAGHSY [peptide 167] here?
**A.** very strong; also recorded: highly immunogenic

**Q.** With “FLLHKYRVK [peptide 118, MAGE-A9 peptide antigen]” as the sequence, how does the “IFN-γ response (ELISPOT)” value ([3]; only with peptide-loaded DC) read?
**A.** good reactivity

**Q.** What does the source list for “FLWGSKAHA [MAGE-A9 270, MAGE-A9 peptide antigen]”?
**A.** binding to MHC class 1 allele A*02:01 (in words) [4]: high binding; CTL response (51Cr-release) [5]: elicited a response

**Q.** For “FMFQEALKL [peptide 102, MAGE-A9 peptide antigen]”, which “IFN-γ response (ELISPOT)” value [1] is on record?
**A.** highest; also recorded: consistently observed

**Q.** And the “IFN-γ response (ELISPOT), significance” value ([1]; splenocytes stimulated with peptide-loaded DCs)?
**A.** statistically significant in two out of three experiments

**Q.** How did the “CTL response (51Cr-release)” value [5] turn out when “GLMGAQEPT [MAGE-A9 24, MAGE-A9 peptide antigen]” was run?
**A.** elicited a response

**Q.** Which “IFN-γ response (ELISPOT)” value ([3]; restimulated with peptide alone) does the source give for “IVLGVILTK [peptide 203, MAGE-A9 peptide antigen]” here?
**A.** weak but significant reactivity

**Q.** Which results are given for KVAELVHFL [MAGE-A9 111]?
**A.** binding affinity compared to M9-A2-270 [4]: lower binding affinity; binding to MHC class 1 allele A*02:01 (in words) [4]: high binding; HLA-A2 binding [6]: high affinity binding; IFN-γ response (ELISPOT) [1]: consistently higher; specific lysis compared to M9-A2-270 [5]: higher specific lysis; CTL response (51Cr-release) [5]: elicited a response; IFN-γ response (ELISPOT) ([2]; first experiment, peptide-loaded DC (FIG. 14A), not observed in the 2nd experiment): moderate response

**Q.** How did the “binding to MHC class 1 allele A*02:01 (in words)” value [4] turn out when “LMLGEFLKL [SurA2.M, survivin peptide antigen HLA-A2]” was run?
**A.** high binding

**Q.** And the HLA-A2 binding [6]?
**A.** high affinity binding

**Q.** How did the “IFN-γ response (ELISPOT)” value [7] turn out when MPKAALLII [peptide 195] was run?
**A.** greatest activity; also recorded: gave an immune response

**Q.** NYKRYFPVI [peptide 141] was tested. Which “IFN-γ response (ELISPOT)” value [8] did it give?
**A.** interesting; also recorded: highest responder; also recorded: good immune responses; also recorded: stronger and more consistent results

**Q.** Which results are given for “STFKNWPFL [SurA24, survivin peptide antigen HLA-A24]”?
**A.** binding to MHC class 1 allele A*02:01 (in words) [4]: high binding; Kinetic score ([4]; MHC class 1 allele A*02:01): 0.00; On-rate T1/2 ([4]; MHC class 1 allele A*02:01): 31.52 h; R-score ([4]; MHC class 1 allele A*02:01): 0.00; Off-rate T1/2 ([4]; MHC class 1 allele A*02:01, * = no significant, stable complex at end of measurement period): 7.2 min; REVEAL score ([4]; MHC class 1 allele A*02:01, Positive Control 100): 61.93

**Q.** Which “IFN-γ response (ELISPOT)” value ([3]; HLA-A11 mice, peptide-loaded DC or peptides alone) does the source give for “SVMGVYVGK [peptide 225, MAGE-A9 peptide antigen]” here?
**A.** very strong; also recorded: very immunogenic

**Q.** How did the “IFN-γ response (ELISPOT)” value [8] turn out when SYILVTALG [compound 174] was run?
**A.** interesting; also recorded: good immune responses

**Q.** Which “IFN-γ response (ELISPOT)” value [8] does the source give for VYYTLWSQF [compound 71] here?
**A.** interesting
